Data on six compounds can be found in US20010039041A1, “Immunosuppressive sesbanimide compositions and methods of treatment using same” (priority 1995, published 2001).

Converted amounts (≈) assume the structure as drawn. “And” between values parts separate entries of the source, which are not always exact repeats. Equal values may be shown once. Read-outs that look alike come from different tables or passages of the source.

Data set [1] relates to CB6-F1 mice grafted with Balb/c splenic lymphocytes. Conditions: for Alive Day 8 / Optimal Dose: GVHR; for Alive Day 8 / Index: at optimal dose; for Optimal Dose: i.p. per diem for 7 days; for Index: spleen index vs syngeneic control, >1.3 = successful graft rejection. An excerpt:
Graft-vs-Host Reaction (GVHR)
The GVHR used for in vivo screening is a modification of the Simonsen's technique. The F1 hybrid host animal is grafted with immunocompetent spleens cells from a parent strain. The host spleen cells are incompatible to grafted donor cells but are themselves not competent to react against them (shared parental genetic determinants). The rejection mechanism in this model is, therefore, from the graft toward the host. The grafted cells, via intraperitoneal injection, migrate to the host's spleen. There they proliferate in response to the difference in genetic determinants inherited from the other parental strain. The index used to measure the success of the GVHR is spleenomegally (increased spleen weight due to cellular proliferation of grafted lymphocytes). An index of 1.0 is equivalent to the spleen weight of syngeneic grafted controls. An index >1.3 (graft index) is considered to be a successful graft rejection of the recipient animal. Any sample that prevents spienomegaly (<graft index) is considered as an immunosuppressive active. Likewise, enhancement of splenomegaly (>graft index) is due either to immunostimulatory synergy of the response or nonspecific immunostimulation. This assay is a cell-mediated type of response and is the direct in vivo correlate of the MLR.
The GVHR is widely used as an in vivo model in transplantation research laboratories. As in models for delayed sensitivity and allograft rejection, it also has clinical implications, especially in bone marrow transplantation. In this situation, immunocompetent lymphocytes transferred with the transplanted bone marrow cells can recirculate into the host bone marrow. These cells from the graft can react against the host (i.e., graft-vs-host disease) with deleterious consequences.
The highest test dose is selected from a previously determined maximum tolerated dose (MTD) resulting from a once only intraperitoneal (i.p.) injection of two animals/dose (e.g., 400, 100, 40 and 10 mg/kg) These animals are followed for five days to allow for possible toxic side effects of the test compound.
In the GVHR, male, CB6-F1 mice (H2^d+H2^b) are grafted by i.p. injection of 50×106 Balb/c (H2^d) splenic lymphocytes conditioned in high-glucose (4500 mg/L) Dulbecco's modified Eagles medium. […] Grafted positive controls, nongrafted negative controls and syngeneic grafted animals all receive vehicle i.p. injections during this time. A standard of cyclophosphamide (200 mg/kg) is used. Experimental animals are sacrificed on D8 and spleens removed. The data is reported as a spleen index compared to the weight of the syngeneic control spleen—both corrected for the total body weights of the animals. In addition, the spleens are homogenized and the lymphocytes enumerated and viabilities determined. The data from both determinations are also expressed as a percent immunomodulation of the positive controls. all data is corrected for nonspecific effects measured from nongrafted animals. Moribund animals are sacrificed immediately.

Data set [2] has as its system mixed lymphocytes from Balb/c (H-2d) and C57BI/6 (H-2b) mice. Nature of the data set: Murine Mixed Lymphocyte Reaction (MLR), 3H-thymidine incorporation. The format is cell-based. Conditions: for IC50: Mus musculus, Lymphocyte; for Index Cytotox./Activity: ratio LcV IC50 / MLR IC50. The method, then: Mixed Lymphocyte Reaction (MLR)
The MLR is an in vitro test of cellular immunity in which murine lymphocytes from genetically dissimilar animals are cocultured to mutually induce cell proliferation (i.e., two-way MLR method). Mixed cell suspensions, together with the test compound, are incubated for 96 hours and subsequently pulsed for 15 hours with tritiated-thymidine (3H-Thy), a radioisotopically labelled nucleic acid. Tritiated-thymidine is incorporated into the DNA of proliferating cells. Data from the MLR is generated as dpm of radioactivity which is then expressed as a percentage of cellular activity, relative to control, using the following reduced formula: [formula]
A 50% inhibitory concentration (IC50) value was interpolated for sesbanimide containing fractions tested. A ratio between cytotoxicity, as determined from the LcV described below, and activity in the MLR is also presented. A high ratio distinguishes noncytotoxic immunosuppression from general cytotoxicity.
Reconstituted extract (10 μl) is added in two sets of duplicates into wells of a 96-well microtiter plate and evaporated to dryness at room temperature. […] To the other set of sample duplicates is added complete media without cells so as to provide for background color control data. All plated are incubated in a 5% CO2 incubator for 96 hours and pulsed for 15 hours with 100 μl containing 1 μCi/well tritiated-thymidine (^3H-Thy). The plates are harvested onto glass fiber filter discs using an INOTECH harvester. The filter discs are counted directly using an INOTECH dry scintillation counter. The activity of the discs are calculated as a relative proliferative percent of a mean control value as described above.

Data set [3] in a line: Lymphocyte Viability / Cytotoxicity Assay (LcV), MTT. The format is cell-based, murine. Conditions: Balb/c, mouse, murine lymphocytes (Balb/c); text summary of Table 4. The method, then: (§1) Lymphocyte Cytotoxicity (LcV) Assay
(§2) The LCV is a in vitro cytotoxicity assay for murine lymphocytes designed by the investigator. The LCV is similar to the MLR with the exception that only one cell population (Balb/c) is incubated with the test compound to assess cytotoxicity as distinct from the antiproliferative effects of a test compound. That is, unlike the unambiguous determination of immunostimulation from MLR data, a judgement of immunosuppression can not be immediately interpreted. Cytotoxicity (e.g., due to direct cell lysis) from a compound can occur which would alter viability determinations inherent in the generation of MLR data. […] The percent viable cells is determined by the MTT-thiazolyl blue method after a similar incubation to the MLR of lymphocytes with the test sample. MTT is a substrate converted by mitochoridrial enzymes in living cells to a purple, water-insoluble, formazan crystal. If there is no significant reduction in cell viability, as determined by this detection method, then damaged cells are probably not present for low data values generated in the MLR. Colorimetric data from the LCV is calculated as a percentage of viability, relative to control, using the following formula: [formula]
(§3) A 50% viability, or 50% cytotoxicity, (IC50) value was interpolated for sesbanimide containing fractions tested.
(§4) Lymphocytes are prepared as described above for the MLR with the exception that cells from only one murine strain are prepared (BLAB/c). Reconstituted extract (10 μl) is added in two sets of duplicates into wells of a 96-well microtiter plate and evaporated to dryness at room temperature. Lymphocytes (2.5×10^6 cells/ml) are added to one set of duplicates and to wells containing no sample. Media containing no cells are added to the other set of duplicates to provide background color control data. Plated are incubated in a 5% CO2 incubator for 4 hours and pulsed with MTT-thiazolyl blue for 6-8 hours.

Data set [4] concerns murine lymphocytes (Balb/c). Described as above. The format is cell-based. Conditions: Balb/c lymphocytes, MTT viability (cytotoxicity). The method, then: as §1, §2, §3, §4
The nature of data set [5]: Toxicology (MTD, LD50) in mice. The format is in vivo, mouse. Conditions: mouse, in vivo; CD-1 or CB6F1 mice. The protocol: (§5) The MTD establishes the parameters to establish in vivo dosages initiated for studying the Graft-v-Host reaction and skin grafting. The Swiss conventional mouse (Charles River CD-1) is used in a weight range from 18-30 g.
(§6) A saline solution containing 5% non-denatured EtOH and a drop of Tween-80 detergent is used a vehicle for dilution. Stirring and sonication are utilized to effect solution or suspension of the composition. The composition is injected within one hour of preparation. Animals are observed for five days (MTD) after injection for toxic symptoms and/or death. Group weights are taken D0 and D5. Surviving animals are sacrificed on D5 (MTD). A ‘Daily Logsheet’ used in the toxicity studies is appended.

The subject of the next data set is CD-1 or CB6F1 Mice. Nature of the data set: Toxicology (MTD, LD50) in mice. The format is in vivo, mouse. The protocol:
as §5, §6

The subject of data set [6] is Agrobacterium species strain PH-103. Nature of the data set: Antibiotic sensitivity (Difco sensitivity discs). The format is cell-based, Agrobacterium sp. Conditions: strain PH-103, ATCC 231 basal medium, 27° C. The protocol:
The culture was incubated at 27° C. and records of the results were made after suitable incubation times. All media were prepared with 2.7% Instant Ocean Salts and pH was approximately neutral (7-7.4). The description of the culture and test results are as follows: […]

As to `O=P1(N(CCCl)CCCl)NCCCO1` (stereo not drawn) [Cyclophosphamide, cyclophosphamide], in data set [1], the “Alive Day 8” value was 100% and 60%; the “Optimal Dose” value worked out at 200.0 mg/kg; the Index is 0.23 and 0.28.

On to `C=C1COC(O)(C2OCOC(C3CC(=O)NC(=O)C3)C2O)C1C` (stereo not drawn) [Sesbanimide, sesbanimide], for which, in data set [2] (LcV vs MLR), the “separation of cytotoxicity to biological activity” value is reported as above 3 log. Further, the IC50 in data set [2] (in vitro cell-mediated immune response, text summary of Table 4, read-out: biological activity IC50) is 0.00015 to 0.0036 µg/mL (≈ 0.000458 to 0.011 µM); in data set [2] (murine two-way MLR, 96 h incubation, 15 h 3H-Thy pulse, read-out: MLR IC50) it was 0.00015 µg/mL (≈ 0.000458 µM); in data set [4] (Mus musculus, Lymphocyte), 0.417 µg/mL (≈ 1.27 µM). Also, the “Index Cytotox./Activity” value in data set [2] is given as 2,777. Further, in data set [3], the IC50 at 4 h lay in the range of 0.417 to 3.6 µg/mL (≈ 1.27 to 11 µM). In data set [5], this compound gave an LD50 at 7 days of 0.805 mg/kg. For the same compound, the “Maximum Tolerated” value in the data set on CD-1 or CB6F1 Mice (CD-1 or CB6F1 mice) is 0.56 mg/kg. Besides, the “Alive Day 5” value with CD-1 or CB6F1 Mice (at maximum tolerated dose, CD-1 or CB6F1 mice) is recorded as 100%. Besides, in the data set with CD-1 or CB6F1 Mice (between 1.05 and 0.56 mg/kg/total dose, QD 1-7 experiment in CB6F1 mice), the LD50 determination worked out at 0.805 mg/kg/total dose. Further, in the data set on CD-1 or CB6F1 Mice (pure compound at 56, 10.5 and 5.6 mg/kg), the toxicity entry is recorded as “toxic”. Besides, the “total dose showing no toxicity” value with CD-1 or CB6F1 Mice (pure compound, in vivo) is at most 0.56 mg/kg. The “Alive Day 8” value in data set [1] was found to be 40%. The “Optimal Dose” value in data set [1] is reported as 0.2 mg/kg. The Index in data set [1] amounted to 0.92.

Consider `CCn1cc(C(=O)O)c(=O)c2ccc(C)nc21` [nalidixic acid], for which the Antibiotic sensitivity entry in data set [6] is reported as “Sensitive”.

On to `CN[C@H](CC(C)C)C(=O)N[C@H]1C(=O)N[C@@H](CC(N)=O)C(=O)N[C@H]2C(=O)N[C@H]3C(=O)N[C@H](C(=O)N[C@H](C(=O)O)c4cc(O)cc(O)c4-c4cc3ccc4O)[C@H](O)c3ccc(c(Cl)c3)Oc3cc2cc(c3O[C@@H]2O[C@H](CO)[C@@H](O)[C@H](O)[C@H]2O[C@H]2C[C@](C)(N)[C@H](O)[C@H](C)O2)Oc2ccc(cc2Cl)[C@H]1O` [vancomycin], for which the Antibiotic sensitivity result in data set [6] is recorded as “resistant”.

polymyxin: the Antibiotic sensitivity entry in data set [6] was “resistant”.

On to sesbanimide, for which, in data set [2] (murine two-way MLR, 96 h incubation, 15 h 3H-Thy pulse), the “MLR IC50” value was below 0.0075 µg/mL. The “Index Cytotox./Activity” value in data set [2] is on record as >1,746. Further, in data set [4], the “LcV IC50” value was determined as 13.100 µg/mL.
